Measurements published in patent publication US11414454B2, “Compositions, methods, and systems for affinity-based protein identification and purification” (Auctus Biologies, Inc., priority 2017, dated 2022).
No end group written: not given here.

Key:
[1] = system: RPtag large with rhodamine labeled PDGF-β n-terminal peptide; experiment: Competition of RPtag large / PDGF-β n-terminal peptide binding by unlabeled peptide; details: 1 uM RPtag large, 1 uM labeled PDGF-β peptide, unlabeled competitor
Protocol: An initial Kd was measured between RPtag(large) and the PDGF-β N-terminal peptide (FIG. 16). […] Next, competition experiments were performed using the mutant RPtag(small) peptide Nd2,P5A,E18A.
The direct binding (left) and competition studies (right) presented in FIG. 16 were performed as follows. The indicated concentration of RPtag large was incubated with 20 nM rhodamine labeled PDGF-β n-terminal peptide for 1 h at room temperature, and the fluorescence anisotropy was measured. The curves were fit with the equation f=y0+(ymax−y0)*(Ptot+x+Kd−sqrt((Ptot+x+Kd)^2−4*Ptot*x))/(2*Ptot), where y0 is the baseline anisotropy, ymax is the maximum anisotropy, Ptot is the fixed concentration of labeled peptide used, x is the variable concentration of protein used, and Kd is the measured Kd. […] The curves were fit empirically to a 4 parameter logistic regression. In both cases, the buffer was 50 mM Tris pH 8.0, 0.005% Tween20. Curves were fit in […] each, and the data was averaged for display. Points are mean±SEM (n=3).

[2] = system: immobilized RPtag(large) column; experiment: Native elution from immobilized RPtag(large) column (3 M NaCl binding, 3 M imidazole elution); design: species or system Thermoanaerobacter tengcongensis; details: bound in 100 mM Tris pH 8.0, 3 M NaCl, 0.005% Tween20
From the text: Because of the observed stabilizing character of NaCl and destabilizing character of imidazole on Nd8Cd4 binding, these reagents, among others, were incorporated into a novel buffering system for use with the disclosed proteins, peptides, systems, and methods. In particular, the effect of this novel buffer on binding of RPtag (small) Nd8Cd4 to an immobilized RPtag(large) column was studied. These experiments included eluting both (1) rhodamine labeled peptide and (2) N-terminally RPtag(small) Nd8Cd4 tagged with tagRFP from a column under native conditions. Generally, native conditions is taken to mean at or near biological conditions under which many proteins are folded, e.g. pH 4-9 at moderate temperature (4° C.-30° C.) in the absence of denaturants (e.g. guanidine hydrochloride, urea, SDS). This is in contrast to denaturing conditions, which generally rely on extreme pH (e.g. ≤2) denaturants, or high temperature to unfold proteins.
Briefly, columns, as described above, were first equilibrated with 10 mL 100 mM Tris pH 8.0, 3 M NaCl, 0.005% Tween20. Next, 1 mL of 10 uM rhodamine-tagged Nd8Cd4 or tagRFP containing an N-terminal RPtag (small) Nd8Cd4 tag was applied in the same buffer. The column was then washed with 10 mL of the same buffer. Finally, bound target molecules were eluted with 10 mL of 100 mM Tris pH 8.0, 3 M imidazole, 0.005% Tween20.

[3] = system: RPtag (large) resin; experiment: Affinity-based precipitation/pull-down with RPtag (large) resin; format: binding, Thermoanaerobacter tengcongensis; details: 7 sequential pulldowns, 6 M guanidine hydrochloride washes
Protocol: The disclosed proteins and peptides were used in precipitation/pull-down assays. Specifically, rhodamine was tagged with the RPtag(small) Nd8Cd4 peptide and RPtag(large) was immobilized on a resin, as described above.
Briefly, 100 μL 1000 nM rhodamine labeled RPtag(small) peptide was incubated with 2.5 uL wet settled RPtag (large) resin generated as (as described above) in phosphate buffered saline (PBS; Gibco)+1% BSA+0.005% Tween 20 at 4° C. for 60 min with continuous orbital shaking. Samples were then washed 3× with 500 μL of the same buffer with no peptide to remove unbound peptide. Bound RPtag(small) peptides were then eluted with 100 μL 100 mM glycine pH 1.5+0.005% Tween20, and the pH raised by adding 1 μL 1 M borate pH 10.0. The amount eluted was calculated from the blank subtracted fluorescence of the elution versus the load. After each elution, resin was washed once with 500 μL 6M GdnHCl and once with 500 μL phosphate buffered saline (Gibco)+1% BSA+0.005% Tween 20, before repeating the assay.
Sequential precipitation/pulldown trials were performed with the rhodamine labelled RPtag(small) Nd8Cd4 peptide, and the RPtag(large)-resin. After binding and pull-down, the rhodamine-peptide was eluted in 100 mM glycine pH 1.5, the column was washed with water and 6 M guanidine hydrochloride, and then re-equilibrated with buffer (50 mM Tris pH 8.0, 10 mM EDTA). […]

KIANFIPAELKLITKANVQ [Nd2, p5a, e18a, KIANFIPAELKLITKANVQ]
disruption of RPtag(large) binding to PDGF-β N-terminal peptide [1]: could be disrupted
elution behaviour with 100 mM Tris pH 8.0, 3 M imidazole [2]: diffuse band

PAELKLITK [Nd8, Cd4, PAELKLITK]
elution behaviour with 100 mM Tris pH 8.0, 3 M imidazole [2]: eluted as a tight band
binding capacity over sequential pulldowns [3]: little to no loss of binding capacity
